{"source": "patent US20250367229A1", "about": "“Treatment of Immune-Related Disorders, Kidney Disorders, Liver Disorders, Hemolytic Disorders, and Oxidative Stress-Associated Disorders Using NRH, NARH and Reduced Derivatives Thereof” (MitoPower LLC, priority 2021, published 2025)", "key": {"CD4^+ T cells [1]": {"system": "CD4^+ T cells", "assay": "Ex vivo polyclonal immune activation model: cytokine production in CD4+ T cells", "format": "cell-based, human", "conditions": "stimulated with anti-CD3 and anti-CD28 antibodies; data not shown", "protocol": "Heparinized venous blood was collected from healthy human adult donors. Peripheral blood mononuclear cells (PBMCs) were isolated by Ficoll-Hypaque density-gradient centrifugation. PBMCs (1.0×10^6) were seeded in round-bottom, 96-well plates in 200 μL of medium, unstimulated or stimulated with an anti-CD3 antibody ([…], clone-HIT3a, Biolegend) plus an anti-CD28 antibody (1 μg/mL, clone-CD28.2, Biolegend) to induce T-cell activation, and incubated in cell-culture medium. The PBMCs were unstimulated or stimulated with anti-CD3 and anti-CD28 antibodies to induce T-cell activation, in the absence or presence of 250 μM NRH. After 18 hours of incubation, lymphocytes were analyzed for intracellular levels of IFN-γ, TNF-α and IL-2 by flow cytometry. Intracellular cytokine production was stopped by treating the cells with Golgi stop after 1 hr of treatment."}, "[2]": {"system": "peripheral blood mononuclear cells (PBMCs)", "assay": "Extracellular acidification rate (ECAR, a measure of glycolysis) in activated PBMCs, Seahorse XF", "format": "cell-based, human", "conditions": "250 μM, 4 hr, PBMCs stimulated with anti-CD3 and anti-CD28 antibodies", "protocol": "PBMCs (1.5×10^6) obtained from a healthy human adult donor were unstimulated or stimulated with anti-CD3 and anti-CD28 antibodies (1 μg/mL each) to induce T-cell activation, in the absence or presence of 250 μM NRH for 4 hr. The cells were then washed and plated on poly-D-lysine-coated Seahorse XF microplates at a density of 3×10^5 cells per well (5 replicates). The plates were centrifuged briefly and incubated at 37° C. in a non-CO2 incubator for 30 min to settle the cells in the bottom of the plate. Extracellular acidification rate (ECAR, a measure of glycolysis) and oxygen consumption rate (OCR, a measure of oxidative phosphorylation) were determined using a Seahorse XF cell mito stress test kit and a Seahorse Xfe96 analyzer (Agilent Technologies, Santa Clara, California) under basal condition or in response to 1.0 μM oligomycin (an inhibitor of ATP synthase), 1.5 μM carbonyl cyanide-p-trifluoromethoxyphenylhydrazone (FCCP, a mitochondrial uncoupler), 0.5 μM rotenone (an inhibitor of electron transport at complex I) and antimycin A (an inhibitor of electron transport at cytochrome c reductase). PBMCs include monocytes and lymphocytes including T cells, B cells and natural killer cells."}, "CD4^+ T cells [3]": {"system": "CD4^+ T cells", "assay": "Mitochondrial membrane depolarization (JC-1, flow cytometry) in CD4+ T cells", "format": "cell-based, human", "conditions": "250 μM, 24 hr, unstimulated or stimulated with anti-CD3 and anti-CD28 antibodies", "protocol": "(§1) PBMCs (10^6 cells per test group) obtained from healthy human adult donors were unstimulated or stimulated with anti-CD3 and anti-CD28 antibodies to induce T-cell activation, in the absence or presence of 250 μM of NRH or NRH-triacetate (NRHTA). Measurements were made at 5, 15 and 24 hr after treatment.\n(§2) After the indicated time of incubation, the PBMCs were stained with anti-CD3, anti-CD4 and anti-CD8 antibodies (Biolegend), JC-1 (1 μM, Thermo Fisher) and annexin V (Thermo Fisher) prior to analysis by flow cytometry. Annexin V binds to cell-surface phosphatidylserine, which is a marker for different forms of cell death including apoptosis and necrosis. The stained cells were re-suspended in phosphate-buffered saline (PBS) and acquired in a Cytek Aurora flow cytometer using a FlowJo software (v10) for analysis. About 200,000-300,000 cells were acquired in the flow cytometer for analysis. Standard procedures for spectral compensation were performed to obtain cell populations. Lymphocytes identified by forward and side scatter were gated to obtain CD3^+/CD4^+ and CD3^+/CD8^+ T-cell populations. Those T-cell populations were gated to identify the red and green signals for JC-1 aggregate and monomer, respectively, and annexin V. The percentage of cells staining green by JC-1 monomer was used to determine the percentage of cells with depolarized mitochondria. […]"}, "CD8^+ T cells [4]": {"system": "CD8^+ T cells", "assay": "Mitochondrial membrane depolarization (JC-1, flow cytometry) in CD8+ T cells", "format": "cell-based, human", "conditions": "250 μM, 24 hr, unstimulated or stimulated with anti-CD3 and anti-CD28 antibodies", "protocol": "as §1, §2"}, "CD4^+ T cells [5]": {"system": "CD4^+ T cells", "assay": "Cell death including apoptosis (annexin V, flow cytometry) of CD4+ T cells with depolarized mitochondria", "format": "cell-based, human", "conditions": "250 μM, 24 hr, unstimulated or stimulated with anti-CD3 and anti-CD28 antibodies", "protocol": "as §1, §2"}, "CD8^+ T cells [6]": {"system": "CD8^+ T cells", "assay": "Cell death including apoptosis (annexin V, flow cytometry) of CD8+ T cells with depolarized mitochondria", "format": "cell-based, human", "conditions": "250 μM, 24 hr, unstimulated or stimulated with anti-CD3 and anti-CD28 antibodies", "protocol": "as §1, §2"}, "HEK293 cells": {"system": "HEK293 cells", "assay": "NADH/NAD+ ratio in H2O2-exposed HEK293 cells (NAD/NADH-Glo)", "format": "cell-based", "conditions": "NRH at 100 and 1000 μM, NR at all tested concentrations (0.01-1000 μM)", "protocol": "HEK293 cells were trypsinized and plated at a density of 60,000 cells per well. The cells were then treated with H2O2 (600 μM prepared with Dulbecco's Modified Eagle Medium [DMEM]) for 30 min. The media was then replaced with serum media (DMEM supplemented with 10% fetal bovine serum [FBS]) containing NRH or NR, and were incubated at 37° C. under 6% CO2 for 30 min or 6 hr. The cells were incubated with the following concentrations of NRH or NR: 0.01, 0.1, 1.0, 10, 100 and 1000 μM. NAD^+ and NADH levels at 30 min and 6 hr were estimated using the NAD/NADH-Glo Promega Bioluminescent assay. The results were expressed as fold change relative to the values obtained with untreated cells."}, "[7]": {"assay": "Stability in human serum in vitro (absorbance over time)", "format": "in vitro ADME", "conditions": "100 μM, 37° C.", "protocol": "Three blood samples were collected from healthy human donors with the same blood group in serum separator vacutainer gel tubes. The samples were centrifuged at 1,800 g to separate serum. The serum samples obtained were pooled together into a separate tube.\nNR, NRH and NRH-triacetate (NRHTA) were initially dissolved in DMSO and then diluted with normal saline to obtain a 1 mM stock solution of each compound. 100 μL of stock solution was added to 900 μL of pooled serum to assess the stability of the test compound in human serum. 200 μL of saline with 1,800 μL of pooled serum was used to prepare a solution for blanking and as a reference measurement. The stock solutions were diluted in the pooled serum and normal saline to prepare 100 μM solutions of the test compounds.\nIn previous experiments, spectral scans between 190 nm and 1100 nm were performed to determine absorbance maxima for NR, NRH and NRHTA, which have maximal absorbance at 265 nm, 340 nm and 331 nm, respectively, in solution.\nThe stability of a test compound in human serum was determined by a change in the concentration of the compound as measured by a change in absorbance at the maximal absorbance wavelength for the compound as a function of time. The test compounds at 100 μM were incubated in human serum at 37° C. Absorbance measurements were made at 0 min (T0), 5 min, 30 min, 120 min, 240 min, 360 min and 1440 min (24 hr). The relative change in absorbance compared to T0 was plotted and used for statistical analysis. The analysis was performed in triplicates."}}}
{"smiles": "NC(=O)C1=CN([C@@H]2O[C@H](CO)[C@@H](O)[C@H]2O)C=CC1", "note": "[NRH, N-(β-D-ribofuranosyl)dihydronicotinamide]", "values": [{"measurement": "production of pro-inflammatory cytokines (e.g., TNF-α, IL-2, IFN-γ) by CD4+ T cells", "setting": "CD4^+ T cells [1]", "value": "reduced production of pro-inflammatory cytokines"}, {"measurement": "extracellular acidification rate (ECAR, a measure of glycolysis) in activated PBMCs", "setting": "[2]", "value": "significantly reduced"}, {"measurement": "mitochondrial membrane depolarization in CD4+ T cells", "setting": "CD4^+ T cells [3]", "value": "significantly induced"}, {"measurement": "mitochondrial membrane depolarization in CD8+ T cells", "setting": "CD8^+ T cells [4]", "value": "significantly induced"}, {"measurement": "cell death including apoptosis of CD4+ T cells with depolarized mitochondria", "setting": "CD4^+ T cells [5]", "value": "reduced cell death"}, {"measurement": "cell death including apoptosis of CD8+ T cells with depolarized mitochondria", "setting": "CD8^+ T cells [6]", "value": "reduced cell death"}, {"measurement": "NADH/NAD+ ratio in HEK293 cells exposed to H2O2", "setting": "HEK293 cells; 30 min of incubation", "value": "significantly increased"}, {"measurement": "NADH/NAD+ ratio in HEK293 cells exposed to H2O2", "setting": "HEK293 cells; 6 hr of incubation", "value": "significantly increased"}, {"measurement": "compound remaining intact in human serum after 6 hr", "setting": "[7]; 6 hr", "value": "Most of both NRH and NRH-triacetate remained intact"}, {"measurement": "stability in human serum compared with NR", "setting": "[7]; up to 24 hr, p<0.05", "value": "much more stable"}]}
